Values of other authors, collected in patent US20150283090A1, “USE OF SILICON OXIDE-BASED MATERIAL FOR THE MODIFIED RELEASE OF BIOLOGICALLY ACTIVE AGENTS” (MERCK PATENT GMBH, priority 2012, published 2015).
Read-outs that look alike come from different tables or passages of the source.

What was measured:
[1] = MCM-48 and LP-la3d, pore sizes 3.6 and 5.7 nm, modified with C8 and C18 hydrocarbon chains
[2] = C1 silylation of MCM-41
[3] = silica hybrid gels with methyl or propyl functionalization

For `CC(C)Cc1ccc(C(C)C(=O)O)cc1` (centres unmarked) [ibuprofen], the delivery rates [1] is given as “decrease of delivery rates when the surface of the material is modified”.

In the case of `C[C@H](CS)C(=O)N1CCC[C@H]1C(=O)O` [Captopril], the release rate [2] is given as “decrease of release rate of Captopril with increasing degree of C1 silylation”.

In the case of `CN[C@H](CC(C)C)C(=O)N[C@H]1C(=O)N[C@@H](CC(N)=O)C(=O)N[C@H]2C(=O)N[C@H]3C(=O)N[C@H](C(=O)N[C@H](C(=O)O)c4cc(O)cc(O)c4-c4cc3ccc4O)[C@H](O)c3ccc(c(Cl)c3)Oc3cc2cc(c3O[C@@H]2O[C@H](CO)[C@@H](O)[C@H](O)[C@H]2O[C@H]2C[C@](C)(N)[C@H](O)[C@H](C)O2)Oc2ccc(cc2Cl)[C@H]1O` [vancomycin], the “release kinetics of vancomycin from SBA-15” value (after functionalizing with octylmethoxysilane (C8)) is given as 0.068 min-½ and the “release kinetics of vancomycin from SBA-15” value (non-functionalized material) is given as 0.890 min-½.

For `OCCN(CCO)c1nc(N2CCCCC2)c2nc(N(CCO)CCO)nc(N3CCCCC3)c2n1` [persantin], the drug release [3] is listed as “inhibition of drug release with an increasing number of methyl or propyl functionalization”.
